Experimental data taken from patent publication US20200268832A1, “COMPOSITIONS FOR DELIVERY TO AND TREATMENT OF ATHEROSCLEROTIC PLAQUES” (Sanford Burnham Prebys Medical Discovery Institute, priority 2015, published 2020).

Biological target: T1, b1b2 domain of NRP-1 (Homo sapiens, UniProt O14786)
T1 sequence (O14786 273-586 limits assumed): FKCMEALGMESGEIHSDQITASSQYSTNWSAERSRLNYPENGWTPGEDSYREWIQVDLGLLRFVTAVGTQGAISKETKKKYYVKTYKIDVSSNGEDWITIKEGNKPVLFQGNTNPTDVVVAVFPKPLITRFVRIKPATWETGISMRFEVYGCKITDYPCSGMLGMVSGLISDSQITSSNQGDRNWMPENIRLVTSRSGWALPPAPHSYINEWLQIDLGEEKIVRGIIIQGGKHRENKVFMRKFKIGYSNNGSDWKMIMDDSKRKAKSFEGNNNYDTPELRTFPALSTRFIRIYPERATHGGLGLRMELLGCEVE
Assay: Fluorescence polarization displacement of FAM-RPARPAR from NRP-1
Format: binding
Conditions: specificity assay, up to 100 μM
Description: Results of the high-throughput screen were confirmed in dose response tests. 8.25 μM to 100 μM dilutions of the compounds that displaced FAM-peptide from p32 were used in competition with FAM-peptide as described in previous section. Specificity of the hit compounds was verified by examining their binding to a different protein, b1b2 domain of NRP-1 (Vander Kooi et al., Proc. Natl. Acad. Sci. U.S.A., 10.1073/pnas.0700043104). Experimental method for NRP-1 b1b2 was developed and validated similarly to p32, using FAM-RPARPAR peptide as a known peptide ligand for NRP-1. The displacement of FAM-RPARPAR from NRP-1 protein by the hit compounds was studied in 384-well format, as described above.

effect on RPARPAR peptide binding to NRP-1: no effect
Compound: Cc1cnccc1NCCN [Compound 4014008, N-(3-methylpyridin-4-yl)ethane-1,2-diamine]
